Reference: the supplement of paper PMC9912026

Test system: A375_NRAS_Q61K_DOXind
Assay: pERK immunofluorescence relative to uninduced (no doxycycline), no-drug control; higher = more ERK phosphorylation (less pathway inhibition)
Settings: drug treatment time 24 h, doxycycline pre-induction time 24 h, vemurafenib background 0 µM
Description: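 pERK was measured by immunofluorescence with FLAG-negative cells excluded. Averages of 2 technical replicates.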

CCCS(=O)(=O)Nc1ccc(F)c(C(=O)c2c[nH]c3ncc(-c4ccc(Cl)cc4)cc23)c1F [Vemurafenib] + O=C(c1ccc(F)c(F)c1Nc1ccc(I)cc1F)N1CC(O)([C@@H]2CCCCN2)C1 [Cobimetinib]
pERK immunofluorescence
Settings	drug B concentration 0 µM	drug B concentration 0.0001 µM	drug B concentration 0.0003162 µM	drug B concentration 0.001 µM	drug B concentration 0.00316228 µM	drug B concentration 0.01 µM	drug B concentration 0.0316228 µM	drug B concentration 0.1 µM	drug B concentration 0.316228 µM	drug B concentration 1 µM
drug A concentration 0 µM, doxycycline 0 ng/mL	–	0.771	0.877	0.692	0.269	0.0826	0.0415	0.0295	0.0213	0.0214
drug A concentration 0 µM, doxycycline 1000 ng/mL	–	1.26	1.36	1.23	1.11	1.03	0.769	0.29	0.0675	0.0264
drug A concentration 0.000316 µM, doxycycline 0 ng/mL	0.894	0.847	0.89	0.663	0.253	0.078	0.0417	0.0283	0.023	0.0216
drug A concentration 0.000316 µM, doxycycline 1000 ng/mL	1.23	1.24	1.3	1.22	1.11	1.06	0.763	0.322	0.073	0.0271
drug A concentration 0.001 µM, doxycycline 0 ng/mL	0.854	0.807	0.827	0.652	0.277	0.0707	0.0373	0.0262	0.0201	0.0201
drug A concentration 0.001 µM, doxycycline 1000 ng/mL	1.15	1.21	1.26	1.29	1.15	1.08	0.761	0.326	0.0778	0.0269
drug A concentration 0.00316 µM, doxycycline 0 ng/mL	0.761	0.816	0.887	0.555	0.229	0.0664	0.0382	0.0255	0.0206	0.0196
drug A concentration 0.00316 µM, doxycycline 1000 ng/mL	1.12	1.17	1.31	1.25	1.13	1.01	0.763	0.311	0.0715	0.0264
drug A concentration 0.01 µM, doxycycline 0 ng/mL	0.697	0.719	0.752	0.525	0.207	0.0636	0.0366	0.0258	0.0201	0.0203
drug A concentration 0.01 µM, doxycycline 1000 ng/mL	1.16	1.21	1.28	1.31	1.21	1.02	0.741	0.32	0.0751	0.0284
drug A concentration 0.0316 µM, doxycycline 0 ng/mL	0.485	0.57	0.578	0.357	0.142	0.0532	0.0338	0.0248	0.0205	0.0197
drug A concentration 0.0316 µM, doxycycline 1000 ng/mL	1.08	1.11	1.22	1.27	1.05	0.964	0.683	0.254	0.0677	0.0258
drug A concentration 0.1 µM, doxycycline 0 ng/mL	0.316	0.286	0.274	0.161	0.0758	0.0428	0.0306	0.0226	0.0207	0.0198
drug A concentration 0.1 µM, doxycycline 1000 ng/mL	1.2	1.18	1.31	1.21	1.12	1.05	0.766	0.294	0.0731	0.0266
drug A concentration 0.316228 µM, doxycycline 0 ng/mL	0.107	0.0916	0.1	0.0715	0.0458	0.0352	0.0271	0.0216	0.0197	0.019
drug A concentration 0.316228 µM, doxycycline 1000 ng/mL	1.17	1.21	1.26	1.25	1.15	1.08	0.736	0.279	0.069	0.0251
drug A concentration 1 µM, doxycycline 0 ng/mL	0.0542	0.0554	0.0566	0.0507	0.0389	0.0323	0.0252	0.0202	0.019	0.0186
drug A concentration 1 µM, doxycycline 1000 ng/mL	1.12	1.21	1.32	1.26	1.15	1.06	0.675	0.212	0.0608	0.0248
drug A concentration 3.16 µM, doxycycline 0 ng/mL	0.0469	0.0457	0.0485	0.044	0.038	0.0293	0.0233	0.02	0.0191	0.0188
drug A concentration 3.16 µM, doxycycline 1000 ng/mL	1.07	1.14	1.22	1.27	1.12	0.941	0.478	0.129	0.0468	0.0219
drug A concentration 10 µM, doxycycline 0 ng/mL	0.0377	0.0388	0.0357	0.0351	0.0307	0.0237	0.0219	0.0199	0.019	0.0193
drug A concentration 10 µM, doxycycline 1000 ng/mL	0.905	1.01	1.04	1.02	0.868	0.553	0.145	0.0465	0.0237	0.0194
